Tests used:
[1] = molecular target: Coagulation factor X (Homo sapiens, UniProt P00742); assay: Inhibition constant towards human coagulation factor X
[2] = molecular target: T1, Coagulation factor VII (Homo sapiens, UniProt P08709); assay: Inhibition constant towards human coagulation factor VII
T1 sequence (P08709 whole entry): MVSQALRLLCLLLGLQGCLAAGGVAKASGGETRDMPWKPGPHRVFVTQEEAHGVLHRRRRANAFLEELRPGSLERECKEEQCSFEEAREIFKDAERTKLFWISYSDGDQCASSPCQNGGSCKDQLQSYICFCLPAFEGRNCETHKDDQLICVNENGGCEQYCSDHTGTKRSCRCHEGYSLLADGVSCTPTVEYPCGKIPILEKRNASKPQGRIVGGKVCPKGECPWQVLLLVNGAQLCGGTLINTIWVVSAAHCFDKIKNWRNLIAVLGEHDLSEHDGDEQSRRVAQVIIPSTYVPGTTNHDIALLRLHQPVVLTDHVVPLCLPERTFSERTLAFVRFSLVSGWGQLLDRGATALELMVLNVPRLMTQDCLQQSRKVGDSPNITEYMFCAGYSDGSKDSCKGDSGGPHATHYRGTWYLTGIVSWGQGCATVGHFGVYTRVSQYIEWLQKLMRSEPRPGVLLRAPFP

[3] = molecular target: T2, Serine protease 1 (Bos taurus, UniProt P00760); assay: Inhibition constant towards bovine trypsin
T2 sequence (P00760 whole entry): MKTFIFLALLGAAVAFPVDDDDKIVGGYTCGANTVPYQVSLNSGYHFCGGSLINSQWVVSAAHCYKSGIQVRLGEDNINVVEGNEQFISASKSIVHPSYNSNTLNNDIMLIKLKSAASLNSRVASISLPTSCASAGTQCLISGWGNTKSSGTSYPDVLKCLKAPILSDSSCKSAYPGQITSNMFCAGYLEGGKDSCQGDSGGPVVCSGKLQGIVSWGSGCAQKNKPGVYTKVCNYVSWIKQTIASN

[4] = molecular target: Prothrombin (Homo sapiens, UniProt P00734); assay: Inhibition constant towards human thrombin

Coagulation factor X, sequence (P00742 41-179 limits assumed): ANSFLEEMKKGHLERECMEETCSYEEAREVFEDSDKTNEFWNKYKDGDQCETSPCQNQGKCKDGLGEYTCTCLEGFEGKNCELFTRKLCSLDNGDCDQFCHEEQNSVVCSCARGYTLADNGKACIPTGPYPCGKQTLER
Coagulation factor X, sequence (P00742 235-488 limits assumed): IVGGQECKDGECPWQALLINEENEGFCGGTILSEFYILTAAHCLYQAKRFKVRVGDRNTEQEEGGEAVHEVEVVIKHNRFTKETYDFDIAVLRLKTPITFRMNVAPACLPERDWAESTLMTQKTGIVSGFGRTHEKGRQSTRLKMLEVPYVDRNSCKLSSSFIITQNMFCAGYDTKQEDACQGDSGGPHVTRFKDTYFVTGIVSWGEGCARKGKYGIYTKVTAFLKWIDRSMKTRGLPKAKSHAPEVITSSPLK

| Structure (SMILES) | Ki [1] [nM] | Ki [2] [nM] | Ki [3] [nM] | Ki [4] [nM] |
| --- | --- | --- | --- | --- |
| CC(C)CCN(Cc1ccc2ccc(C(=N)N)cc2c1)C(=O)c1ccc2ccccc2c1 | 512 | 783 | 460 | 486 |
| CN1CCCC1CCN(Cc1ccc2ccc(C(=N)N)cc2c1)C(=O)c1cccc2ccccc12 (configuration not stated) | 111 | 142 | 433 | > 5000 |
| N=C(N)c1ccc2ccc(CN(CCc3ccccn3)C(=O)c3cccc4ccccc34)cc2c1 | 104 | 195 | 299 | 4760 |
| N=C(N)c1ccc2ccc(CN(CCCc3ccccc3)C(=O)c3cccc4ccccc34)cc2c1 | 632 | 207 | 925 | 1200 |
| N=C(N)c1ccc2ccc(CN(CCc3cnc[nH]3)C(=O)c3cccc4ccccc34)cc2c1 | 264 | 305 | 378 | > 5000 |
| N=C(N)c1ccc2ccc(CN(CCC[n+]3cc[nH]c3)C(=O)c3cccc4ccccc34)cc2c1 | 731 | 282 | 752 | > 5000 |
| CC1CCCCN1CCCN(Cc1ccc2ccc(C(=N)N)cc2c1)C(=O)c1cccc2ccccc12 (configuration not stated) | 137 | 646 | 367 | > 5000 |
| N=C(N)c1ccc2ccc(CN(CCCN3CCOCC3)C(=O)c3cccc4ccccc34)cc2c1 | 442 | 121 | 378 | > 5000 |
| CN1CCN(CCCN(Cc2ccc3ccc(C(=N)N)cc3c2)C(=O)c2cccc3ccccc23)CC1 | 136 | 1310 | 500 | 500 |
| N=C(N)c1ccc2ccc(CN(CCc3ccc(F)cc3)C(=O)c3cccc4ccccc34)cc2c1 | 40 | 194 | 501 | 1680 |
| COc1ccc(CCN(Cc2ccc3ccc(C(=N)N)cc3c2)C(=O)c2cccc3ccccc23)cc1OC | 417 | 133 | 105 | 2510 |
| CC(C)CCN(Cc1ccc2ccc(C(=N)N)cc2c1)C(=O)c1cccc2ccccc12 | 262 | 93 | 698 | 1160 |
| CC(C)CC(C(=O)O)N(Cc1ccc2ccc(C(=N)N)cc2c1)C(=O)c1cccc2ccccc12 (single isomer, unassigned) | > 5000 | 1010 | 1610 | > 5000 |

Source: ChEMBL document CHEMBL1144375, “Solid-phase synthesis of naphthylamidines as factor VIIa/tissue factor inhibitors” (Bioorg Med Chem Lett, 2005)
